The target of the assay is T1, GPR84 (Homo sapiens, UniProt Q9NQS5).
T1 construct: expressed in transfected cells
The assay can be described thus: GPR84 [35S]GTPγS binding assay, HEPES buffer. The settings on record: 3,3′ di indolylmethane at EC80, membranes from stable cell line over expressing GPR84. The class given is biochemical. How it is done: 1.1. Cell Based Assay: GTp-γ S Binding Assay.
The following assay can be used for determination of GPR84 activation.
The assay is performed in a 96 well plate where the following reagents are added. […] In a last step, 30 μL of a mixture consisting of membranes-GTPγS-SpA beads is added [mixture consists of 20 μg/well membranes derived from stable cell line over expressing GPR84 (membranes are pre-incubated with 0.1 μM GDP for 15 min at 4° C.), 0.1 nM [^35S]GTPγS (Perkin Elmer, NEG030) and 0.5 mg/well PVT-WGA SpA beads (Perkin Elmer, RPNQ0001)]. All components are diluted in assay buffer containing 20 mM HEPES pH 7.4; 5 mM MgCl2; 250 mM NaCl; 0.05% BSA; 75 ug/mL saponin Reactions are incubated for 90 min at room temperature followed by centrifugation at 2000 rpm during 15 min. Plates are read on a Topcount reader (Perkin Elmer) immediately after centrifugation (readout time, 1 min/well).
A general note: GTPγS is a poorly hydrolysed GTP analogue; its binding reports G protein activation.

SMILES strings stand for the structures.

T1 sequence (Q9NQS5 whole entry): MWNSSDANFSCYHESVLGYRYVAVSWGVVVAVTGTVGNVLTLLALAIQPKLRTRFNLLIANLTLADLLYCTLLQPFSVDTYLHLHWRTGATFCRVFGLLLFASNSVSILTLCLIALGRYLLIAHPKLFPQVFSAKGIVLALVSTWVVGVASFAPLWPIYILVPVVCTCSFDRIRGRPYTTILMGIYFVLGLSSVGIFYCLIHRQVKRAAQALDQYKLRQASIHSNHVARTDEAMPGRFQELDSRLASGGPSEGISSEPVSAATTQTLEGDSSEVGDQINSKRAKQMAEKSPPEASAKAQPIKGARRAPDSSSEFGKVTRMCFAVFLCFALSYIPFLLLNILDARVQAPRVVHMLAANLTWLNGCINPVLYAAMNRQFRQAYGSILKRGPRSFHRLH

A word on the IC50: it is the midpoint of a concentration-inhibition curve. The low end stands for inhibition by little substance, the high end for a need for much substance. `O=c1nc(OCC2COc3ccccc3O2)cc2n1CCc1cc(OCCCN3CCCCC3)ccc1-2` (stereo not drawn) [compound 81, 2-(2,3-dihydro-benzo[1,4]dioxin-2-ylmethoxy)-9-(3-piperidin-1-yl-propoxy)-6,7-dihydro-pyrimido[6,1-a]isoquinolin-4-one] came in with an IC50 of 100 to 500 nM.

`CN(C)CCCOc1ccc2c(c1)CCn1c-2cc(OCC2COc3ccccc3O2)nc1=O` (stereo not drawn) [compound 82, 2-(2,3-Dihydro-benzo[1,4]dioxin-2-ylmethoxy)-9-(3-dimethylamino-propoxy)-6,7-dihydro-pyrimido[6,1-a]isoquinolin-4-one] registered a concentration for half-maximal inhibition (IC50) of 500 to 1000 nM.

Compound `CN1CCCC1CCOc1ccc2c(c1)CCn1c-2cc(OCC2COc3ccccc3O2)nc1=O` (stereo not drawn) [compound 83, 2-(2,3-dihydro-benzo[1,4]dioxin-2-ylmethoxy)-9-[2-(1-methyl-pyrrolidin-2-yl)-ethoxy]-6,7-dihydro-pyrimido[6,1-a]isoquinolin-4-one] showed a concentration for half-maximal inhibition (IC50) of 100 to 500 nM. `CN1CCN(CCCOc2ccc3c(c2)CCn2c-3cc(OCC3COc4ccccc4O3)nc2=O)CC1` (stereo not drawn) [compound 84, 2-(2,3-dihydro-benzo[1,4]dioxin-2-ylmethoxy)-9-[3-(4-methyl-piperazin-1-yl)-propoxy]-6,7-dihydro-pyrimido[6,1-a]isoquinolin-4-one]: the 50% inhibitory concentration (IC50) is 100 to 500 nM. Then `CCOC(=O)c1ccc(COc2ccc3c(c2)CCn2c-3cc(OCC3COc4ccccc4O3)nc2=O)o1` (stereo not drawn) [compound 85, 5-[2-(2,3-dihydro-benzo[1,4]dioxin-2-ylmethoxy)-4-oxo-6,7-dihydro-4H-pyrimido[6,1-a]isoquinolin-9-yloxymethyl]-furan-2-carboxylic acid ethyl ester], with 0.01 to 100 nM; and `CC(C)(C)c1nc(COc2ccc3c(c2)CCn2c-3cc(OCC3CCCO3)nc2=O)no1` (stereo not drawn) [compound 87, 9-(5-tert-butyl-[1,2,4]oxadiazol-3-ylmethoxy)-2-(tetrahydro-furan-2-ylmethoxy)-6,7-dihydro-pyrimido[6,1-a]isoquinolin-4-one], with 0.01 to 100 nM.

`O=c1nc(OCC2CCCO2)cc2n1CCc1cc(OCc3noc(-c4ccccc4)n3)ccc1-2` (stereo not drawn) [compound 88, 9-(5-phenyl-[1,2,4]oxadiazol-3-ylmethoxy)-2-(tetrahydro-furan-2-ylmethoxy)-6,7-dihydro-pyrimido[6,1-a]isoquinolin-4-one] showed a concentration for half-maximal inhibition (IC50) of 0.01 to 100 nM. The compound `O=c1nc(OCC2COc3ncccc3O2)cc2n1CCc1cc(OCCN3CCOCC3)ccc1-2` (stereo not drawn) [compound 90, 2-(2,3-dihydro-[1,4]dioxino[2,3-b]pyridin-2-ylmethoxy)-9-(2-morpholin-4-yl-ethoxy)-6,7-dihydro-pyrimido[6,1-a]isoquinolin-4-one] yielded an IC50 of 100 to 500 nM. Then `CN1CCCC1CCOc1ccc2c(c1)CCn1c-2cc(OCC2COc3ncccc3O2)nc1=O` (stereo not drawn) [compound 92, 2-(2,3-dihydro-[1,4]dioxino[2,3-b]pyridin-2-ylmethoxy)-9-[2-(1-methyl-pyrrolidin-2-yl)-ethoxy]-6,7-dihydro-pyrimido[6,1-a]isoquinolin-4-one], with 100 to 500 nM; and `O=c1nc(OCC2CCCO2)cc2n1CCc1cc(-c3cccnc3)ccc1-2` (stereo not drawn) [compound 94, 9-pyridin-3-yl-2-(tetrahydro-furan-2-ylmethoxy)-6,7-dihydro-pyrimido[6,1-a]isoquinolin-4-one], with 500 to 1000 nM. As to `N#Cc1cccc(-c2ccc3c(c2)CCn2c-3cc(OCC3CCCO3)nc2=O)c1` (stereo not drawn) [compound 95, 3-[4-Oxo-2-(tetrahydro-furan-2-ylmethoxy)-6,7-dihydro-4H-pyrimido[6,1-a]isoquinolin-9-yl]-benzonitrile], the IC50 lay in the range of 100 to 500 nM.

In turn, `O=c1nc(OCC2CCCO2)cc2n1CCc1cc(-c3ccccc3)ccc1-2` (stereo not drawn) [compound 96, 9-phenyl-2-(tetrahydro-furan-2-ylmethoxy)-6,7-dihydro-pyrimido[6,1-a]isoquinolin-4-one] returned an IC50 of 100 to 500 nM. Regarding `O=c1nc(OCC2COc3ncccc3O2)cc2n1CCc1cc(-c3ccncc3)ccc1-2` (stereo not drawn) [compound 97, 2-(2,3-dihydro-[1,4]dioxino[2,3-b]pyridin-2-ylmethoxy)-9-pyridin-4-yl-6,7-dihydro-pyrimido[6,1-a]isoquinolin-4-one], the IC50 was in the range of 0.01 to 100 nM. For `N#Cc1cccc(-c2ccc3c(c2)CCn2c-3cc(OCC3COc4ncccc4O3)nc2=O)c1` (stereo not drawn) [compound 98, 3-[2-(2,3-dihydro-[1,4]dioxino[2,3-b]pyridin-2-ylmethoxy)-4-oxo-6,7-dihydro-4H-pyrimido[6,1-a]isoquinolin-9-yl]-benzonitrile] the value was 0.01 to 100 nM; for `COc1ccccc1-c1ccc2c(c1)CCn1c-2cc(OCC2CCCO2)nc1=O` (stereo not drawn) [compound 99, 9-(2-methoxy-phenyl)-2-(tetrahydro-furan-2-ylmethoxy)-6,7-dihydro-pyrimido[6,1-a]isoquinolin-4-one], 100 to 500 nM; for `COc1cccc(-c2ccc3c(c2)CCn2c-3cc(OCC3CCCO3)nc2=O)c1` (stereo not drawn) [compound 100, 9-(3-methoxy-phenyl)-2-(tetrahydro-furan-2-ylmethoxy)-6,7-dihydro-pyrimido[6,1-a]isoquinolin-4-one], 100 to 500 nM. For `COc1ccc(-c2ccc3c(c2)CCn2c-3cc(OCC3CCCO3)nc2=O)cc1` (stereo not drawn) [compound 101, 9-(4-methoxy-phenyl)-2-(tetrahydro-furan-2-ylmethoxy)-6,7-dihydro-pyrimido[6,1-a]isoquinolin-4-one] the value was 100 to 500 nM; for `O=C(O)c1cccc(-c2ccc3c(c2)CCn2c-3cc(OCC3CCCO3)nc2=O)c1` (stereo not drawn) [compound 103, 3-[4-oxo-2-(tetrahydro-furan-2-ylmethoxy)-6,7-dihydro-4H-pyrimido[6,1-a]isoquinolin-9-yl]-benzoic acid], 500 to 1000 nM; for `CN(C)c1ccc(-c2ccc3c(c2)CCn2c-3cc(OCC3CCCO3)nc2=O)cc1` (stereo not drawn) [compound 105, 9-(4-dimethylamino-phenyl)-2-(tetrahydro-furan-2-ylmethoxy)-6,7-dihydro-pyrimido[6,1-a]isoquinolin-4-one], 100 to 500 nM. `NC(=O)c1ccc(-c2ccc3c(c2)CCn2c-3cc(OCC3CCCO3)nc2=O)cc1` (stereo not drawn) [compound 106, 4-[4-oxo-2-(tetrahydro-furan-2-ylmethoxy)-6,7-dihydro-4H-pyrimido[6,1-a]isoquinolin-9-yl]-benzamide] showed a 50% inhibitory concentration (IC50) of 100 to 500 nM. The compound `N#Cc1ccccc1-c1ccc2c(c1)CCn1c-2cc(OCC2CCCO2)nc1=O` (stereo not drawn) [compound 107, 2-[4-oxo-2-(tetrahydro-furan-2-ylmethoxy)-6,7-dihydro-4H-pyrimido[6,1-a]isoquinolin-9-yl]-benzonitrile] returned a half-inhibitory concentration (IC50) of 500 to 1000 nM. Take `COc1cncc(-c2ccc3c(c2)CCn2c-3cc(OCC3COc4ncccc4O3)nc2=O)c1` (stereo not drawn) [compound 140, 2-(2,3-dihydro-[1,4]dioxino[2,3-b]pyridin-2-ylmethoxy)-9-(5-methoxy-pyridin-3-yl)-6,7-dihydro-pyrimido[6,1-a]isoquinolin-4-one]: the 50% inhibitory concentration (IC50) is 0.01 to 100 nM. For `O=c1nc(OCC2COc3ncccc3O2)cc2n1CCc1cc(C#CC3CC3)ccc1-2` (stereo not drawn) [compound 141, 9-cyclopropylethynyl-2-(2,3-dihydro-[1,4]dioxino[2,3-b]pyridin-2-ylmethoxy)-6,7-dihydro-pyrimido[6,1-a]isoquinolin-4-one] the value was 0.01 to 100 nM. For `COc1ncccc1-c1ccc2c(c1)CCn1c-2cc(OCC2COc3ncccc3O2)nc1=O` (stereo not drawn) [compound 145, 2-(2,3-dihydro-[1,4]dioxino[2,3-b]pyridin-2-ylmethoxy)-9-(2-methoxy-pyridin-3-yl)-6,7-dihydro-pyrimido[6,1-a]isoquinolin-4-one] the value was 0.01 to 100 nM; for `O=c1nc(OCC2COc3ncccc3O2)cc2n1CCc1ccccc1-2` (stereo not drawn) [compound 146, 2-(2,3-dihydro-[1,4]dioxino[2,3-b]pyridin-2-ylmethoxy)-6,7-dihydro-pyrimido[6,1-a]isoquinolin-4-one], 0.01 to 100 nM. Take `CNC(=O)c1ccc(-c2ccc3c(c2)CCn2c-3cc(OCC3COc4ncccc4O3)nc2=O)cn1` (stereo not drawn) [compound 147, 5-[2-(2,3-dihydro-[1,4]dioxino[2,3-b]pyridin-2-ylmethoxy)-4-oxo-6,7-dihydro-4H-pyrimido[6,1-a]isoquinolin-9-yl]-pyridine-2-carboxylic acid methylamide]: the IC50 lay in the range of 0.01 to 100 nM. Then `O=c1nc(OCC2COc3ncccc3O2)cc2n1CCc1cc(-c3ccoc3)ccc1-2` (stereo not drawn) [compound 148, 2-(2,3-dihydro-[1,4]dioxino[2,3-b]pyridin-2-ylmethoxy)-9-furan-3-yl-6,7-dihydro-pyrimido[6,1-a]isoquinolin-4-one], with 0.01 to 100 nM. Then `Cn1cc(-c2ccc3c(c2)CCn2c-3cc(OCC3COc4ncccc4O3)nc2=O)cn1` (stereo not drawn) [compound 149, 2-(2,3-dihydro-[1,4]dioxino[2,3-b]pyridin-2-ylmethoxy)-9-(1-methyl-1H-pyrazol-4-yl)-6,7-dihydro-pyrimido[6,1-a]isoquinolin-4-one], with 0.01 to 100 nM; and `O=c1nc(OCC2COc3ncccc3O2)cc2n1CCc1cc(CN3CCOCC3)ccc1-2` (stereo not drawn) [compound 150, 2-(2,3-dihydro-[1,4]dioxino[2,3-b]pyridin-2-ylmethoxy)-9-morpholin-4-ylmethyl-6,7-dihydro-pyrimido[6,1-a]isoquinolin-4-one], with 0.01 to 100 nM; and `N#CCNc1ccc2c(c1)CCn1c-2cc(OCC2COc3ncccc3O2)nc1=O` (stereo not drawn) [compound 151, [2-(2,3-dihydro-[1,4]dioxino[2,3-b]pyridin-2-ylmethoxy)-4-oxo-6,7-dihydro-4H-pyrimido[6,1-a]isoquinolin-9-ylamino]-acetonitrile], with 100 to 500 nM.

The values above are taken from patent publication US9708312B2, “Dihydropyrimidinoisoquinolinones and pharmaceutical compositions thereof for the treatment of inflammatory disorders (GPR84 antagonists)” (GALAPAGOS NV, priority 2012, dated 2017).
